Residues, ends and D or L forms follow the SMILES beside them. *: point of attachment. Biotin = O=C1N[C@H]2[C@H](CS[C@H]2CCCCC(=O)*)N1
Key:
[1] = Peptide delivery to brain cortex of undamaged animals; type: in vivo; conditions: 3 nmol/g i.v. (retro-orbital), undamaged male mice, sacrificed 30 min after; Fluorescein Avidin D (Fig S5)
Procedure: (§1) Vehicle (saline), Bio-TMyc or Bio-TT1Ct (3 nmol/g) were retro-orbitally injected in mice one hour after induction of photothrombotic damage or, alternatively, undamaged animals. In the first case, animals were sacrificed 5 h after damage induction while, the second group was sacrificed 30 min after peptide administration. The details of brain fixation and cryoprotection for peptide visualization and/or immunohistochemistry are provided in the Supplementary material. […]
(§2) Finally, the sa mple s were mounted in Prolong Diamond. The images were acquired using an inverted Zeiss LSM 710 laser confocal microscope (Jena, Germany) with a 40x or 63x Plan-Apochromatic oil immersion objective. Images corre spond to single se ctions and were normalized for eac h colour se para tely and process ed for presenta tion with ImageJ (NIH Image) and Fiji.
(§3) Peptide visualization and immunohistochemis tr y in brain cortex
(§4) For peptide visua liz ation in undamaged or damaged brains, animals were deeply anes thetized and intra cardially perfus ed with cold PBS and 4% paraformalde hyde in PBS. Brains were post-fixed in the sa m e fixative at 4°C for 24 h and cryoprote cted in 30% suc ros e for 48 h at 4°C. […]

[2] = Peptide detection in brain cortex after photothrombotic ischemia; type: in vivo; conditions: 3 nmol/g i.v. 1 h after damage, male and female mice sacrificed 5 h post-stroke; Fluorescein Avidin D (Fig 5C)
Procedure: as §1, §2, §3, §4

[3] = test system: neurons of primary cortical cultures; experiment: Neuronal viability (MTT) under NMDA excitotoxicity; type: cell-based, rat
Procedure: Cultures were prepared from cerebral cortex of 18-day-old Wistar rat embryos, both genders indistinctly included. Unless otherwise indicated, glial growth was inhibited after 7 days in vitro (DIVs), experimental treatments taking place after 12 DIVs. These cultures present a high percentage of neurons, combined with glial cells, mostly astrocytes. To induce excitotoxicity, cultures were incubated with NMDA (100 µM) and its co-agonist glycine (10 µM), herein denoted simply as NMDA, which induce a strong excitotoxic response in mature neurons but have no effect on astrocyte viability,[47]. When indicated, cultures were preincubated for 30 min with indicated concentrations of Tat-derived CPPs before NMDA treatment, peptides being kept in the medium along treatment. Total cell or neuronal viability assessment was established by the thiazolyl blue formazan (MTT) reduction assay. Further details are provided as Supplementary material. […]
(§5) skull for 10 min. Br ain injury encompas se s damage to vas cular endothelium, platelet activation, and subs equent microvascula r thrombotic occlus ion of the irradiate d region. The ar eas underneath this ste reotaxic position that result irradiate d ar e the prima ry motor cortex and the prima ry soma tos ens ory cortex (hindlimb and forelimb). Once completed surgery, the incision was sutured, and mice were allowed to recover.
For neuroprote ction experiments, a single dose (3 nmol/g) of peptides TMyc or TT1Ct (> 95% purity; GenScript), solubilized as 2.5 mM solutions in 0.9% NaC l, we retro-orbita lly injected 1 h af ter damage initiation. In order to improve their plas ma sta bility, thes e peptides ar e N- and C-ter modifie d by, respec tive ly, ace tyl and amide groups. Mi c e were not subje cted to other procedures before isc hemia and were naive to drug or peptide treatment. Animals were randomly allocated to the experimental groups and the resea rc hers doing the experiments were blind respec t to treatment. There was not a previous es tima tion of sa mple si z e and experiments were independently car r ied out as indicated. Twenty-four hours af ter damage induction, animals completed the beam walking test and were subs equently sa cri f i ced by cervical disloca tion to meas ure the infarc t volume, as indicated below. Be fore that, brains were se ctioned into se ri al 1-mm-thick coronal sl i ce s using a mouse brain matrix (Stoe lting, Wood Dale, IL, USA), and se ctions were completely sta ine d with 2% TTC at room temperature to visua liz e the cortical infarc ts . For immunohistochemis try, animals were deeply anes thetized 5 or 24 h af ter brain damage and intra cardially perfus ed with cold PBS and 4% paraformalde hyde in PBS as indicated below.
Primary cultures of rat cor tic al neurons to study in vitro excitotoxicity The diss ected cerebral cortices of Wis ta r rat embryos (E18), both genders included, were mechanic ally diss ociated in culture medium (Minimum Esse ntia l Me dium, ME M, Life Technologies) follow ed by se eding of the cell sus pens ion at a dens ity of 1.1x10^6 cells /ml, prepared in the sa m e medium supple me nted with 22.2 mM glucos e, 0.1 mM glutamax, 5% foetal bovine se rum (FBS), 5% donor horse se rum (HS), 100 U/ml penicillin and 100 µg/ml streptomycin. Be fore se eding, the plates were treated overnight at 37°C with 100 µg/ml poly-L-lysine and 4 µg/ml laminin. The cells were incubated at 37°C in an atmosphe re of 5% CO2 and 95% humidity. Generally, glial growth was inhibited af ter 7 days in vitro (DIV s) by adding 10 µM 5 cytos ine β-D-arabinofuranos ide (AraC) and experimental treatments took place af ter 12 DIVs. Excitotoxicity was induced by incubation with NM DA (100 µM) and glycine (10 µM) for the indicated times. As indicated, cultures were preincubated with Tat-derived CP P s before […]
Mi c e had to walk through a narrow beam (1 m × 1 cm × 1 cm) placed 50 cm above the tabletop, going from an aversive stimulus (60-W light bulb) to a black goal box with nes ting material. […]

[4] = Infarct volume after photothrombotic permanent ischemia; type: in vivo, mice; conditions: 24 h, TTC, relative to hemisphere volume
Procedure: Permanent focal ischemia was induced in cerebral cortex of adult male and female mice by microvascular photothrombosis as described with modifications. Brain injury involves vascular endothelium damage and platelet activation, followed by microvascular thrombotic occlusion of a particular region selected for illumination using a stereotaxic frame. Coordinates were +0.2 AP, +2 ML relative to Bregma and damaged area corresponded to primary motor and somatosensory cortex. For neuroprotection, a single dose (3 nmol/g) of peptides TMyc or TT1Ct (see below) was administered 1 h after damage initiation. Further details of the procedures, including measurement of infarct volume and evaluation of motor coordination and balance, are detailed as Supplementary material.
Antibodies, chemica ls and recombinant proteins, cell-penetrating peptides , prime rs , commercial as says , experimental models, recombinant DNAs and software ar e des cribe d in the Table S1, included as Supplementary material.
Animal procedures were performed follow ing Europea n Union Directive 2010/63/ EU and were approved by the CS I C and Comunidad de Ma drid (Ref PROEX 276.6/20) ethics committees.
Hous ing facilities were approved by Comunidad de Ma drid (#ES 280790000188) and conform to official regulations. Animals had sta ndard health and immune sta tus and were looked af ter by profes sional caretake rs daily. Ma l e and female mice were kept in groups of up to five in sta ndard IVC cage s while 1–2 pregnant rats occupied sta ndard cage s, always containing bedding and nes ting materials. Animals were under controlled lighting conditions (12 h light cycles ), relative humidity and temperature. Irradiated food and water were provided ad libitum.
We trie d to minimiz e animal suffering and reduce the number of sa cri f i ced animals .
Mi c e model of isc he mia by microv ascular photothr ombosis to study in vivo excitotoxicity This model of permanent focal isc hemia mimics embolic or thrombotic occlus ion of sm a ll ar ter ie s, which is freque ntly found in human stroke, and caus es a focal brain damage with histological and MR I corre lations to human patterns. The procedure was as previously des cribe d with some modific ations . Ma l e and female Ba lb/c OlaHsd mice (23–31 g; 10–16 weeks of age; Envigo Rms , Spain S.L.) were allowed to acc limatize to our facilities for at least 1 week af ter delivery, before isc hemic induction. They were kept with the sa m e cage mates, and daily examined to chec k their health sta tus . Mi c e were anes thetized with isoflurane (5% for induction, 2% for maintenance in oxygen; Abbot Labora tories , Ma drid, Spain) and then placed in a ste reotaxic frame (Naris hige Group, Tokyo, Ja pan). Body temperature was maintained at 36–37°C using a se l f-regulating heating blanket (Cibertec, Ma drid, Spain). A midline sc al p incision was made, the skull was expos ed, and both Bregma and Lambda points were identifie d.
A cold- light (Sc hott KL 2500 LCD; Schott Glas s, Ma inz, Germany) with a fibre optic bundle of 1.5 mm in diameter was centred using a micromanipula tor on the right side , at 0.2 mm anterior and 2.0 mm lateral (+0.2 AP, +2 ML ) relative to Bregma. […] Five minutes later, the brain was illumina ted (600 lms, 3,000 K) through the intact […]
as §5, with “recover. […]” for “recover.”

[5] = Beam walking test after photothrombotic ischemia; type: in vivo, mice; conditions: contralateral hind paw slips, beam walking 24 h after insult, 3 nmol/g i.v. 1 h after damage, mean ± SEM, n = 10-12

Compound | Crossing of the BBB and delivery to cortical cells [1] | Time of peptide detection in brain cortex after administration [2] | Neuronal viability ([3]; CPPs 0: peptide and NMDA (100 µM) at the same time, viability after 4 h of excitotoxicity, relative to untreated cells (100%), mean, n = 4-8 (Fig S4)) | Neuronal viability ([3]; CPPs 30: peptide added 30' post-NMDA (100 µM), viability after 4 h of excitotoxicity, relative to untreated cells (100%), mean, n = 4-8 (Fig S4)) | Neuronal viability ([3]; CPPs 60: peptide added 60' post-NMDA (100 µM), viability after 4 h of excitotoxicity, relative to untreated cells (100%), mean, n = 4-8 (Fig S4)) | Neuronal viability ([3]; dose-response experiment (Fig 3B): peptide 15 µM preincubated 30 min, NMDA 2 h, mean ± SEM, n = 8) | Infarct volume (%) ([4]; female mice, 3 nmol/g i.v. 1 h after damage, mean, n = 9-10) | Infarct volume (%) ([4]; male + female mice, 3 nmol/g i.v. 1 h after damage induction, mean ± SEM, n = 19, n = 20) | Infarct volume (%) ([4]; male mice, 3 nmol/g i.v. 1 h after damage, mean, n = 9-10) | Number of slips ([5]; female mice) | Number of slips ([5]; male mice)
CC[C@H](C)[C@H](NC(=O)[C@H](CCCCN)NC(=O)[C@H](Cc1c[nH]cn1)NC(=O)[C@H](Cc1ccccc1)NC(=O)[C@H](CC(C)C)NC(=O)[C@@H](NC(=O)[C@H](Cc1ccccc1)NC(=O)[C@@H]1CCCN1C(=O)[C@@H]1CCCN1C(=O)[C@H](CCCNC(=N)N)NC(=O)[C@H](CCCNC(=N)N)NC(=O)[C@H](CCCNC(=N)N)NC(=O)[C@H](CCC(N)=O)NC(=O)[C@H](CCCNC(=N)N)NC(=O)[C@H](CCCNC(=N)N)NC(=O)[C@H](CCCCN)NC(=O)[C@H](CCCCN)NC(=O)[C@H](CCCNC(=N)N)NC(=O)CNC(=O)[C@H](Cc1ccc(O)cc1)NC(=O)CCCC[C@@H]1SC[C@@H]2NC(=O)N[C@@H]21)C(C)C)C(=O)N1CCC[C@H]1C(=O)N[C@@H](CC(C)C)C(=O)N[C@@H](CC(=O)O)C(=O)NCC(N)=O [Bio-TT1Ct] (Biotin-YGRKKRRQRRRPPFVLFHKIPLDG-NH2) | able to cross the BBB and efficiently reach most cortical cells in 30 min | at least 4 h |  |  |  |  |  |  |  |  | 
Ac-YGRKKRRQRRRAEEQKLISEEDLLR-NH2 [TMyc, reference compound] |  |  | 36% | 37% | 37% | 13 ± 9% | 15 ± 2% | 17 ± 2% | 20 ± 1% | 5 ± 1 | 10 ± 1

— PMC11984388, “A brain-accessible peptide modulates stroke inflammatory response and neurotoxicity by targeting BDNF-receptor TrkB-T1 specific interactome” (Theranostics, 2025)
